{
  "source": "paper PMC12720774",
  "about": "“Detergents alter the stability and lipid binding properties of the CD1d immunoreceptor” (Protein Science : A Publication of the Protein Society, 2025)",
  "format_in_all_cases": "binding",
  "key": {"[1]": {"molecular_target": "T1, CSP 319‐328/HLA‐B*08:01/hβ2M complex (Homo sapiens, UniProt P01889, A93T/A95T/D138N/E176V/E187T/K202T/Q94N/R180D/S35A/V36M/Y33D/Y91F)", "T1 construct": "made in house", "test": "ITF with peptide/HLA complex", "conditions": "for ITF change in Trp fluorescence (F-F0/F0): peptide/HLA with ODG, replicates", "text": "(§1) To determine whether detergent effects were specific to hCD1d, we performed analogous ITF, MST, and nanoDSF experiments with a peptide/HLA complex. HLA‐B*08:01, presenting the Plasmodium falciparum derived peptide […] ([…]), was selected as a representative model system since the peptide antigen contains hydrophilic solvent‐exposed residues in the antigen‐binding groove (Frooman et al., [2025]). Although structurally similar to that of hCD1d, HLA‐B*08:01 shares low sequence identity (Figure S10a). […] By nanoDSF, ODG caused minimal destabilization of either complex (ΔT m≈−0.2 to −0.8°C; Figure S10f). […] We posit that lipid‐specific unloading effects of detergent are due to either hydrophobic residues in the antigen binding groove (detergent‐CD1d interactions) and/or the hydrophobic nature of the lipid antigen (detergent‐lipid interactions).\n(§2) For comparison with peptide/HLA molecules, we prepared recombinant CSP 319‐328/HLA‐B*08:01/hβ2M complex using in vitro refolding methods fully described previously (Frooman et al., [2025]). The peptide sequence for CSP 319–328 is […]. This peptide was chosen since it contains Lys, Gln, and Asp residues predicted to be solvent‐exposed in the HLA‐B*08:01 binding groove (Frooman et al., [2025]).\nITF experiments with peptide/HLA molecules and detergents were performed using an analogous protocol."}, "[2]": {"molecular_target": "T1, CSP 319‐328/HLA‐B*08:01/hβ2M complex", "test": "MST with peptide/HLA complex", "conditions": "for MST normalized fluorescence signal (Fnorm): peptide/HLA with ODG, replicates", "text": "as §1, §2\nMST experiments with peptide/HLA molecules and detergents were performed using an analogous protocol."}, "[3]": {"molecular_target": "T1, CSP 319‐328/HLA‐B*08:01/hβ2M complex", "test": "nanoDSF with peptide/HLA complex", "conditions": "for nanoDSF melting temperature of peptide/HLA: peptide/HLA with ODG, replicates", "text": "as §1, §2\nNanoDSF experiments with peptide/HLA molecules and detergents were performed using an analogous protocol."}, "[4]": {"conditions": "concentration 0.00625 (unit not given)"}, "[5]": {"conditions": "concentration 0.0125 (unit not given)"}, "[6]": {"conditions": "concentration 0.025 (unit not given)"}},
  "note": "“And” between values parts separate entries of the source, which are not always exact repeats. Equal entries are not always repeated.",
  "data": [
    {"compound": "CCCCCCCCO[C@@H]1O[C@H](CO)[C@@H](O)[C@H](O)[C@H]1O", "note": "[ODG, n‐octyl‐β‐D‐glucopyranoside]", "values": [
      {"measurement": "ITF fluorescence change with peptide/HLA (in words)", "setting": "[1]", "value": "minimal concentration‐dependent fluorescence changes"},
      {"measurement": "ITF change in Trp fluorescence (F-F0/F0)", "setting": "[1]; concentration 1.53e-6 (unit not given)", "value": 0},
      {"measurement": "ITF change in Trp fluorescence (F-F0/F0)", "setting": "[1]; concentration 3.05e-6 (unit not given)", "value": "0.00207 and -0.125 and -0.0308"},
      {"measurement": "ITF change in Trp fluorescence (F-F0/F0)", "setting": "[1]; concentration 6.1e-6 (unit not given)", "value": "0.0103 and -0.142 and -0.0188"},
      {"measurement": "ITF change in Trp fluorescence (F-F0/F0)", "setting": "[1]; concentration 1.22e-5 (unit not given)", "value": "0.0112 and -0.132 and -0.0414"},
      {"measurement": "ITF change in Trp fluorescence (F-F0/F0)", "setting": "[1]; concentration 2.44e-5 (unit not given)", "value": "0.0406 and -0.126 and -0.0165"},
      {"measurement": "ITF change in Trp fluorescence (F-F0/F0)", "setting": "[1]; concentration 4.88e-5 (unit not given)", "value": "-0.113 and -0.0115 and 0.0922"},
      {"measurement": "ITF change in Trp fluorescence (F-F0/F0)", "setting": "[1]; concentration 9.77e-5 (unit not given)", "value": "-0.121 and -0.135 and 0.0848"},
      {"measurement": "ITF change in Trp fluorescence (F-F0/F0)", "setting": "[1]; concentration 0.000195 (unit not given)", "value": "0.0173 and -0.126 and -0.052"},
      {"measurement": "ITF change in Trp fluorescence (F-F0/F0)", "setting": "[1]; concentration 0.000391 (unit not given)", "value": "0.0313 and -0.107 and -0.0351"},
      {"measurement": "ITF change in Trp fluorescence (F-F0/F0)", "setting": "[1]; concentration 0.000781 (unit not given)", "value": "-0.0702 and -0.0972 and -0.0274"},
      {"measurement": "ITF change in Trp fluorescence (F-F0/F0)", "setting": "[1]; concentration 0.00156 (unit not given)", "value": "-0.063 and -0.0903 and -0.0215"},
      {"measurement": "ITF change in Trp fluorescence (F-F0/F0)", "setting": "[1]; concentration 0.00313 (unit not given)", "value": "0.0779 and 0.0569 and 0.00937"},
      {"measurement": "ITF change in Trp fluorescence (F-F0/F0)", "setting": "[1]; [4]", "value": "0.0158 and 0.129 and 0.219"},
      {"measurement": "ITF change in Trp fluorescence (F-F0/F0)", "setting": "[1]; [5]", "value": "0.00491 and 0.00219 and 0.25"},
      {"measurement": "ITF change in Trp fluorescence (F-F0/F0)", "setting": "[1]; [6]", "value": "0.118 and 0.242 and 0.374"},
      {"measurement": "Kd", "setting": "[2]; 100 nM AF647‐labeled peptide/HLA, 25°C, read-out: K D (MST), peptide/HLA", "value": "3.97 ± 0.29", "unit": "mM"},
      {"measurement": "MST normalized fluorescence signal (Fnorm)", "setting": "[2]; concentration 1.52588e-6 (unit not given)", "value": "823.198 and 827.76 and 828.811"},
      {"measurement": "MST normalized fluorescence signal (Fnorm)", "setting": "[2]; concentration 3.05176e-6 (unit not given)", "value": "822.943 and 827.867 and 830.525"},
      {"measurement": "MST normalized fluorescence signal (Fnorm)", "setting": "[2]; concentration 6.10352e-6 (unit not given)", "value": "822.246 and 827.784 and 829.217"},
      {"measurement": "MST normalized fluorescence signal (Fnorm)", "setting": "[2]; concentration 1.2207e-5 (unit not given)", "value": "822.018 and 826.127 and 829.204"},
      {"measurement": "MST normalized fluorescence signal (Fnorm)", "setting": "[2]; concentration 2.44141e-5 (unit not given)", "value": "822.327 and 826.016 and 829.378"},
      {"measurement": "MST normalized fluorescence signal (Fnorm)", "setting": "[2]; concentration 4.88281e-5 (unit not given)", "value": "822.531 and 826.781 and 828.529"},
      {"measurement": "MST normalized fluorescence signal (Fnorm)", "setting": "[2]; concentration 9.76563e-5 (unit not given)", "value": "821.832 and 827.649 and 828.743"},
      {"measurement": "MST normalized fluorescence signal (Fnorm)", "setting": "[2]; concentration 0.000195313 (unit not given)", "value": "821.404 and 825.833 and 828.951"},
      {"measurement": "MST normalized fluorescence signal (Fnorm)", "setting": "[2]; concentration 0.000390625 (unit not given)", "value": "819.989 and 827.51 and 830.305"},
      {"measurement": "MST normalized fluorescence signal (Fnorm)", "setting": "[2]; concentration 0.00078125 (unit not given)", "value": "822.464 and 828.227 and 831.061"},
      {"measurement": "MST normalized fluorescence signal (Fnorm)", "setting": "[2]; concentration 0.0015625 (unit not given)", "value": "823.907 and 829.452 and 833.281"},
      {"measurement": "MST normalized fluorescence signal (Fnorm)", "setting": "[2]; concentration 0.003125 (unit not given)", "value": "828.308 and 833.352 and 835.76"},
      {"measurement": "MST normalized fluorescence signal (Fnorm)", "setting": "[2]; [4]", "value": "834.384 and 840.244 and 840.854"},
      {"measurement": "MST normalized fluorescence signal (Fnorm)", "setting": "[2]; [5]", "value": "835.617 and 843.292 and 844.526"},
      {"measurement": "MST normalized fluorescence signal (Fnorm)", "setting": "[2]; [6]", "value": "837.125 and 844.883 and 846.326"},
      {"measurement": "MST normalized fluorescence signal (Fnorm)", "setting": "[2]; concentration 0.05 (unit not given)", "value": "838.274 and 844.594 and 846.629"},
      {"measurement": "ΔT m (nanoDSF), peptide/HLA", "setting": "[3]; absence vs maximum concentration of detergent, 1 μM peptide/HLA", "value": "−0.2 to −0.8", "unit": "°C"},
      {"measurement": "nanoDSF melting temperature of peptide/HLA", "setting": "[3]; concentration 1.495 (unit not given)", "value": "55.47 and 55.54 and 54.62"},
      {"measurement": "nanoDSF melting temperature of peptide/HLA", "setting": "[3]; concentration 2.991 (unit not given)", "value": "55.33 and 55.34 and 55.32"},
      {"measurement": "nanoDSF melting temperature of peptide/HLA", "setting": "[3]; concentration 5.981 (unit not given)", "value": "55.24 and 55.48 and 55.35"},
      {"measurement": "nanoDSF melting temperature of peptide/HLA", "setting": "[3]; concentration 11.96 (unit not given)", "value": "55.41 and 55.18 and 55.09"},
      {"measurement": "nanoDSF melting temperature of peptide/HLA", "setting": "[3]; concentration 23.93 (unit not given)", "value": "55.51 and 54.95 and 55.4"},
      {"measurement": "nanoDSF melting temperature of peptide/HLA", "setting": "[3]; concentration 47.85 (unit not given)", "value": "55.44 and 54.77 and 55.24"},
      {"measurement": "nanoDSF melting temperature of peptide/HLA", "setting": "[3]; concentration 95.7 (unit not given)", "value": "55.2 and 55.36 and 55.21"},
      {"measurement": "nanoDSF melting temperature of peptide/HLA", "setting": "[3]; concentration 191.4 (unit not given)", "value": "55.5 and 55.26 and 55.22"},
      {"measurement": "nanoDSF melting temperature of peptide/HLA", "setting": "[3]; concentration 382.8 (unit not given)", "value": "55.54 and 55.43 and 55.19"},
      {"measurement": "nanoDSF melting temperature of peptide/HLA", "setting": "[3]; concentration 765.6 (unit not given)", "value": "55.29 and 55.05 and 54.95"},
      {"measurement": "nanoDSF melting temperature of peptide/HLA", "setting": "[3]; concentration 1531 (unit not given)", "value": "55.13 and 55.03 and 54.92"},
      {"measurement": "nanoDSF melting temperature of peptide/HLA", "setting": "[3]; concentration 3063 (unit not given)", "value": "54.91 and 54.34 and 54.94"},
      {"measurement": "nanoDSF melting temperature of peptide/HLA", "setting": "[3]; concentration 6125 (unit not given)", "value": "53.87 and 53.91"},
      {"measurement": "nanoDSF melting temperature of peptide/HLA", "setting": "[3]; concentration 12500 (unit not given)", "value": "51.99 and 52.51 and 52.34"},
      {"measurement": "nanoDSF melting temperature of peptide/HLA", "setting": "[3]; concentration 25000 (unit not given)", "value": "50.57 and 50.47 and 50.7"},
      {"measurement": "nanoDSF melting temperature of peptide/HLA", "setting": "[3]; concentration 50000 (unit not given)", "value": "50.26 and 49.92 and 50.62"}
    ]}
  ]
}
